Laboratory results from PubChem BioAssay (NCI).
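Results reflect a 48-hour exposure of cells in 96-well plates to compound at five concentrations. Abbreviation: GI50, concentration required for 50% inhibition of growth. TGI: concentration producing complete growth inhibition.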

Columns and labels:
Experiment in all cases: NCI anticancer screen, dose series, 48 h
CAKI-1 renal = system: CAKI-1 renal
MALME-3M melanoma = system: MALME-3M melanoma
KM12 colon = system: KM12 colon
UACC-257 melanoma = system: UACC-257 melanoma
M14 melanoma = system: M14 melanoma
786-0 renal = system: 786-0 renal
MCF7 breast = system: MCF7 breast
PC-3 prostate = system: PC-3 prostate
SK-MEL-5 melanoma = system: SK-MEL-5 melanoma
SNB-75 CNS = system: SNB-75 CNS
HCT-15 colon = system: HCT-15 colon
HS 578T breast = system: HS 578T breast
A549 NSCLC = system: A549 NSCLC
HCT-116 colon = system: HCT-116 colon
UACC-62 melanoma = system: UACC-62 melanoma
ACHN renal = system: ACHN renal
K-562 leukemia = system: K-562 leukemia
NCI/ADR-RES ovarian = system: NCI/ADR-RES ovarian
SF-295 CNS = system: SF-295 CNS
DU-145 prostate = system: DU-145 prostate
SK-OV-3 ovarian = system: SK-OV-3 ovarian
OVCAR-8 ovarian = system: OVCAR-8 ovarian
HT29 colon = system: HT29 colon
OVCAR-3 ovarian = system: OVCAR-3 ovarian
A498 renal = system: A498 renal
MDA-MB-231 breast = system: MDA-MB-231 breast
SF-268 CNS = system: SF-268 CNS
SNB-19 CNS = system: SNB-19 CNS
RXF 393 renal = system: RXF 393 renal
IGROV1 ovarian = system: IGROV1 ovarian
HOP-62 NSCLC = system: HOP-62 NSCLC
T-47D breast = system: T-47D breast
SW-620 colon = system: SW-620 colon
EKVX NSCLC = system: EKVX NSCLC
NCI-H23 lung = system: NCI-H23 lung
BT-549 breast = system: BT-549 breast
HOP-92 NSCLC = system: HOP-92 NSCLC
MOLT-4 leukemia = system: MOLT-4 leukemia
SK-MEL-2 melanoma = system: SK-MEL-2 melanoma
OVCAR-4 ovarian = system: OVCAR-4 ovarian
LOX IMVI melanoma = system: LOX IMVI melanoma
HL-60(TB) leukemia = system: HL-60(TB) leukemia
U251 CNS = system: U251 CNS
NCI-H226 lung = system: NCI-H226 lung
CCRF-CEM leukemia = system: CCRF-CEM leukemia
SN12C renal = system: SN12C renal
HCC-2998 colon = system: HCC-2998 colon
NCI-H460 lung = system: NCI-H460 lung
MDA-MB-435 = system: MDA-MB-435
RPMI-8226 leukemia = system: RPMI-8226 leukemia
OVCAR-5 ovarian = system: OVCAR-5 ovarian
UO-31 renal = system: UO-31 renal
SK-MEL-28 melanoma = system: SK-MEL-28 melanoma
SF-539 CNS = system: SF-539 CNS
TK-10 renal = system: TK-10 renal
SR leukemia = system: SR leukemia
COLO 205 colon = system: COLO 205 colon

## IP(CCCSc1n(Cc2ccc3ccccc3c2)c(-c2ccccc2)c(-c2ccccc2)[n+]1Cc1ccc2ccccc2c1)(c1ccccc1)(c1ccccc1)c1ccccc1
CAKI-1 renal
  GI50: 9.96 µM
  TGI: 31.7 µM
MALME-3M melanoma
  GI50: 2.37 µM
  TGI: 8.23 µM
KM12 colon
  GI50: 2.45 µM
  TGI: 6.23 µM
UACC-257 melanoma
  GI50: 2.89 µM
  TGI: 9.64 µM
M14 melanoma
  GI50: 3.34 µM
  TGI: 23 µM
786-0 renal
  GI50: 5.81 µM
  TGI: 40.1 µM
MCF7 breast
  GI50: 2.77 µM
  TGI: 9 µM
PC-3 prostate
  GI50: 2.84 µM
  TGI: 10.8 µM
SK-MEL-5 melanoma
  GI50: 2.42 µM
  TGI: 5.91 µM
SNB-75 CNS
  GI50: 2.03 µM
  TGI: 9.21 µM
HCT-15 colon
  GI50: 19.6 µM
  TGI: > 100 µM
HS 578T breast
  GI50: 3.04 µM
  TGI: 14.1 µM
A549 NSCLC
  GI50: 4.49 µM
  TGI: 36.1 µM
HCT-116 colon
  GI50: 2.99 µM
  TGI: 10.6 µM
UACC-62 melanoma
  GI50: 2.35 µM
  TGI: 7.91 µM
ACHN renal
  GI50: 20.2 µM
  TGI: 96.4 µM
K-562 leukemia
  GI50: 3.05 µM
  TGI: 10.4 µM
NCI/ADR-RES ovarian
  GI50: 17.3 µM
  TGI: > 100 µM
SF-295 CNS
  GI50: 3.3 µM
  TGI: 16.2 µM
DU-145 prostate
  GI50: 3.57 µM
  TGI: 23.9 µM
SK-OV-3 ovarian
  GI50: 3.9 µM
  TGI: 38.4 µM
OVCAR-8 ovarian
  GI50: 5.62 µM
  TGI: > 100 µM
HT29 colon
  GI50: 2.52 µM
  TGI: 7.14 µM
OVCAR-3 ovarian
  GI50: 2.81 µM
  TGI: 8.86 µM
A498 renal
  GI50: 3.88 µM
  TGI: 29.4 µM
MDA-MB-231 breast
  GI50: 2.81 µM
  TGI: 9.58 µM
SF-268 CNS
  GI50: 3.42 µM
  TGI: 20.3 µM
SNB-19 CNS
  GI50: 2.39 µM
  TGI: 16.7 µM
RXF 393 renal
  GI50: 2.8 µM
  TGI: 9.44 µM
IGROV1 ovarian
  GI50: 2.96 µM
  TGI: > 100 µM
HOP-62 NSCLC
  GI50: 3.3 µM
  TGI: 23.4 µM
T-47D breast
  GI50: 2.89 µM
  TGI: 14.1 µM
SW-620 colon
  GI50: 3.56 µM
  TGI: 21.9 µM
EKVX NSCLC
  GI50: 4.43 µM
  TGI: 43.1 µM
NCI-H23 lung
  GI50: 2.34 µM
  TGI: 7.13 µM
BT-549 breast
  GI50: 2.6 µM
  TGI: 7.25 µM
HOP-92 NSCLC
  GI50: 1.69 µM
  TGI: 6.48 µM
MOLT-4 leukemia
  GI50: 3.05 µM
  TGI: 11.5 µM
SK-MEL-2 melanoma
  GI50: 2.05 µM
  TGI: 5.41 µM
OVCAR-4 ovarian
  GI50: 3.16 µM
  TGI: 22.5 µM
LOX IMVI melanoma
  GI50: 1.94 µM
  TGI: 4.49 µM
HL-60(TB) leukemia
  GI50: 1.9 µM
  TGI: 3.86 µM
U251 CNS
  GI50: 3.26 µM
  TGI: > 100 µM
NCI-H226 lung
  GI50: 12.2 µM
  TGI: 98.2 µM
CCRF-CEM leukemia
  GI50: 3.11 µM
  TGI: 12 µM
SN12C renal
  GI50: 4.07 µM
  TGI: 17.4 µM
HCC-2998 colon
  GI50: 3.74 µM
  TGI: 16.3 µM
NCI-H460 lung
  GI50: 2.53 µM
  TGI: 6.25 µM
MDA-MB-435
  GI50: 2.84 µM
  TGI: 11 µM
RPMI-8226 leukemia
  GI50: 2.49 µM
  TGI: 6.81 µM
OVCAR-5 ovarian
  GI50: 3.59 µM
  TGI: 17.4 µM
UO-31 renal
  GI50: 5.55 µM
  TGI: > 100 µM
SK-MEL-28 melanoma
  GI50: 3.25 µM
  TGI: 15.9 µM
SF-539 CNS
  GI50: 3.08 µM
  TGI: 9.57 µM
TK-10 renal
  GI50: 8.12 µM
  TGI: 59 µM

## O=C(Nc1cc(Cl)cc(Cl)c1)Nc1nc2ccc([N+](=O)[O-])cc2s1
CAKI-1 renal
  GI50: 0.992 µM
  TGI: 8.47 µM
MALME-3M melanoma
  GI50: 0.518 µM
  TGI: 5.72 µM
KM12 colon
  GI50: 1.16 µM
  TGI: 7.33 µM
SR leukemia
  GI50: 0.32 µM
  TGI: 2.1 µM
UACC-257 melanoma
  GI50: 0.95 µM
  TGI: 4.84 µM
M14 melanoma
  GI50: 1.88 µM
  TGI: 5.79 µM
786-0 renal
  GI50: 1.47 µM
  TGI: 5.86 µM
MCF7 breast
  GI50: 0.717 µM
  TGI: > 100 µM
PC-3 prostate
  GI50: 0.568 µM
  TGI: > 100 µM
SK-MEL-5 melanoma
  GI50: 0.446 µM
  TGI: 1.66 µM
SNB-75 CNS
  GI50: 1.04 µM
  TGI: 3.83 µM
HCT-15 colon
  GI50: 0.769 µM
  TGI: > 100 µM
HS 578T breast
  GI50: 0.999 µM
  TGI: 4.72 µM
A549 NSCLC
  GI50: 1.7 µM
  TGI: > 100 µM
HCT-116 colon
  GI50: 0.57 µM
  TGI: 4.76 µM
UACC-62 melanoma
  GI50: 0.569 µM
  TGI: 2.21 µM
ACHN renal
  GI50: 1.37 µM
  TGI: 21.8 µM
K-562 leukemia
  GI50: 0.504 µM
  TGI: > 24.3 µM
NCI/ADR-RES ovarian
  GI50: 0.8 µM
  TGI: 6.2 µM
SF-295 CNS
  GI50: 0.524 µM
  TGI: 1.92 µM
DU-145 prostate
  GI50: 1.72 µM
  TGI: > 100 µM
SK-OV-3 ovarian
  GI50: 1.45 µM
  TGI: 5.6 µM
OVCAR-8 ovarian
  GI50: 1.74 µM
  TGI: > 100 µM
HT29 colon
  GI50: 1.61 µM
  TGI: > 100 µM
OVCAR-3 ovarian
  GI50: 0.722 µM
  TGI: 8.2 µM
A498 renal
  GI50: 0.287 µM
  TGI: 1.04 µM
MDA-MB-231 breast
  GI50: 1.19 µM
  TGI: 4.12 µM
SF-268 CNS
  GI50: 1.61 µM
  TGI: > 100 µM
SNB-19 CNS
  GI50: 1.19 µM
  TGI: 25.7 µM
RXF 393 renal
  GI50: 0.558 µM
  TGI: 2.17 µM
IGROV1 ovarian
  GI50: 1.77 µM
  TGI: 84.5 µM
HOP-62 NSCLC
  GI50: 1.78 µM
  TGI: 5.5 µM
T-47D breast
  GI50: 0.571 µM
  TGI: 6.15 µM
SW-620 colon
  GI50: 1.63 µM
  TGI: 85.7 µM
EKVX NSCLC
  GI50: 1.14 µM
  TGI: 7.63 µM
NCI-H23 lung
  GI50: 0.378 µM
  TGI: 2.31 µM
BT-549 breast
  GI50: 1.68 µM
  TGI: 4.66 µM
HOP-92 NSCLC
  GI50: 0.212 µM
  TGI: 0.67 µM
MOLT-4 leukemia
  GI50: 0.685 µM
  TGI: 3.23 µM
SK-MEL-2 melanoma
  GI50: 0.771 µM
  TGI: 3.83 µM
OVCAR-4 ovarian
  GI50: 0.583 µM
  TGI: > 100 µM
COLO 205 colon
  GI50: 0.646 µM
  TGI: 2.21 µM
LOX IMVI melanoma
  GI50: 0.839 µM
  TGI: 2.44 µM
HL-60(TB) leukemia
  GI50: 0.714 µM
  TGI: 2.86 µM
U251 CNS
  GI50: 0.909 µM
  TGI: > 100 µM
NCI-H226 lung
  GI50: 1.04 µM
  TGI: 3.15 µM
CCRF-CEM leukemia
  GI50: 0.429 µM
  TGI: 3.88 µM
SN12C renal
  GI50: 0.752 µM
  TGI: 5.62 µM
HCC-2998 colon
  GI50: 0.503 µM
  TGI: 4.07 µM
NCI-H460 lung
  GI50: 1.48 µM
  TGI: > 100 µM
MDA-MB-435
  GI50: 1.51 µM
  TGI: 6.77 µM
RPMI-8226 leukemia
  GI50: 0.376 µM
  TGI: 1.59 µM
OVCAR-5 ovarian
  GI50: 2.65 µM
  TGI: > 100 µM
UO-31 renal
  GI50: 0.708 µM
  TGI: 2.8 µM
SK-MEL-28 melanoma
  GI50: 1.03 µM
  TGI: 3.58 µM
SF-539 CNS
  GI50: 1.18 µM
  TGI: 5.43 µM
TK-10 renal
  GI50: 2.21 µM
  TGI: 13.3 µM
